From ChEMBL document CHEMBL6103639, “Structure-Based Development of 3,4-Fused Tricyclic Benzofuran Derivatives as Polyketide Synthase 13 Inhibitors with Negligible hERG Inhibition” (J Med Chem, 2025)
pIC50: −log10 of the molar value.

Experiments:
[1] = tested on: Mycobacterium tuberculosis; assay: Antitubercular activity against Mycobacterium tuberculosis H37Rv assessed as reduction in microbial growth by microplate alamar blue assay; assay type: functional
[2] = target: Voltage-gated inwardly rectifying potassium channel KCNH2 (Homo sapiens, UniProt Q12809); assay: Inhibition of human ERG expressed in CHO cells incubated for 2.5 mins by Q-patch-clamp electrophysiological analysis; assay type: toxicity, cell-based
Chain of Voltage-gated inwardly rectifying potassium channel KCNH2 (Q12809 whole entry): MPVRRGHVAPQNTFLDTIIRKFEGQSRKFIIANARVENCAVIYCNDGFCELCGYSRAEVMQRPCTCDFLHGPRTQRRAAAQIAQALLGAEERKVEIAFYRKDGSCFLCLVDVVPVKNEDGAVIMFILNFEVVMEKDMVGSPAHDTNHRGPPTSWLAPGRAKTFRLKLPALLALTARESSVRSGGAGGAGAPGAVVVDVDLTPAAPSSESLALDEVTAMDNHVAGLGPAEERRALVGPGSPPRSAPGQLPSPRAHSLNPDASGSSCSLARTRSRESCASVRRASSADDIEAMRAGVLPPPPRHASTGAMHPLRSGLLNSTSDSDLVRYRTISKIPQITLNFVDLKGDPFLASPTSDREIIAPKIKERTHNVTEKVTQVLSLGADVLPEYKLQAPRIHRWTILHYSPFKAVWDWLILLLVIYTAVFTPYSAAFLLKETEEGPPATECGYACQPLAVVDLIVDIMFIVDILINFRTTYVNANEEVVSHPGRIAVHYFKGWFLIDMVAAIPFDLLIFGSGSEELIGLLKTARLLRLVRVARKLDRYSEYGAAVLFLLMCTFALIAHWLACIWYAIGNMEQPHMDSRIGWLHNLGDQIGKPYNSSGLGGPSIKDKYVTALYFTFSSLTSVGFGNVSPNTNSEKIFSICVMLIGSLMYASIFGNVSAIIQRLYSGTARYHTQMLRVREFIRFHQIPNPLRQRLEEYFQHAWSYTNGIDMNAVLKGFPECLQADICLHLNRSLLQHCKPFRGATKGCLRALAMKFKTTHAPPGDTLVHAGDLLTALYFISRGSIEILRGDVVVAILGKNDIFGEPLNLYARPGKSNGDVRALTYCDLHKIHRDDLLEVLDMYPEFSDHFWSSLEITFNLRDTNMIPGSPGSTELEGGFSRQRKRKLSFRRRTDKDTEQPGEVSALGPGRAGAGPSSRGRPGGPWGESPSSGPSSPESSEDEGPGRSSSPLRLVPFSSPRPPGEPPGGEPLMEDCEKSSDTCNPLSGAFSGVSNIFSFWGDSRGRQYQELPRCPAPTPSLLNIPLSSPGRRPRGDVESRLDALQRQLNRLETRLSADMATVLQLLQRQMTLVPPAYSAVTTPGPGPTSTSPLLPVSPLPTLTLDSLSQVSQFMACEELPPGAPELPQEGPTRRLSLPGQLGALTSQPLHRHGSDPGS

[3] = Metabolic stability in human liver microsomes assessed as intrinsic clearance at 0.1 uM measured upto 60 mins by LC/MS-MS analysis; assay type: ADME, Microsome; details: read-out: CLH
[4] = tested on: Mycobacterium tuberculosis; assay: Antitubercular activity against Mycobacterium tuberculosis H37Rv assessed as reduction in microbial growth incubated for 6 days by microplate alamar blue assay; assay type: functional; details: 144 h, time 6 day
[5] = Metabolic stability in human liver microsomes assessed as parent compound remaining at 0.1 uM incubated for 60 mins by LC/MS-MS analysis; assay type: ADME, Microsome; details: read-out: Stability
[6] = target: Polyketide synthase Pks13 (Mycobacterium tuberculosis (strain ATCC 25618 / H37Rv)) (UniProt I6X8D2); assay: Induction of stabilization of Mycobacterium tuberculosis H37Rv Pks-13 TE domain assessed as melting temperature incubated for 30 mins by NanoDSF assay
Chain of Polyketide synthase Pks13 (Mycobacterium tuberculosis (strain ATCC 25618 / H37Rv)) (I6X8D2 whole entry, the tested form may be a part): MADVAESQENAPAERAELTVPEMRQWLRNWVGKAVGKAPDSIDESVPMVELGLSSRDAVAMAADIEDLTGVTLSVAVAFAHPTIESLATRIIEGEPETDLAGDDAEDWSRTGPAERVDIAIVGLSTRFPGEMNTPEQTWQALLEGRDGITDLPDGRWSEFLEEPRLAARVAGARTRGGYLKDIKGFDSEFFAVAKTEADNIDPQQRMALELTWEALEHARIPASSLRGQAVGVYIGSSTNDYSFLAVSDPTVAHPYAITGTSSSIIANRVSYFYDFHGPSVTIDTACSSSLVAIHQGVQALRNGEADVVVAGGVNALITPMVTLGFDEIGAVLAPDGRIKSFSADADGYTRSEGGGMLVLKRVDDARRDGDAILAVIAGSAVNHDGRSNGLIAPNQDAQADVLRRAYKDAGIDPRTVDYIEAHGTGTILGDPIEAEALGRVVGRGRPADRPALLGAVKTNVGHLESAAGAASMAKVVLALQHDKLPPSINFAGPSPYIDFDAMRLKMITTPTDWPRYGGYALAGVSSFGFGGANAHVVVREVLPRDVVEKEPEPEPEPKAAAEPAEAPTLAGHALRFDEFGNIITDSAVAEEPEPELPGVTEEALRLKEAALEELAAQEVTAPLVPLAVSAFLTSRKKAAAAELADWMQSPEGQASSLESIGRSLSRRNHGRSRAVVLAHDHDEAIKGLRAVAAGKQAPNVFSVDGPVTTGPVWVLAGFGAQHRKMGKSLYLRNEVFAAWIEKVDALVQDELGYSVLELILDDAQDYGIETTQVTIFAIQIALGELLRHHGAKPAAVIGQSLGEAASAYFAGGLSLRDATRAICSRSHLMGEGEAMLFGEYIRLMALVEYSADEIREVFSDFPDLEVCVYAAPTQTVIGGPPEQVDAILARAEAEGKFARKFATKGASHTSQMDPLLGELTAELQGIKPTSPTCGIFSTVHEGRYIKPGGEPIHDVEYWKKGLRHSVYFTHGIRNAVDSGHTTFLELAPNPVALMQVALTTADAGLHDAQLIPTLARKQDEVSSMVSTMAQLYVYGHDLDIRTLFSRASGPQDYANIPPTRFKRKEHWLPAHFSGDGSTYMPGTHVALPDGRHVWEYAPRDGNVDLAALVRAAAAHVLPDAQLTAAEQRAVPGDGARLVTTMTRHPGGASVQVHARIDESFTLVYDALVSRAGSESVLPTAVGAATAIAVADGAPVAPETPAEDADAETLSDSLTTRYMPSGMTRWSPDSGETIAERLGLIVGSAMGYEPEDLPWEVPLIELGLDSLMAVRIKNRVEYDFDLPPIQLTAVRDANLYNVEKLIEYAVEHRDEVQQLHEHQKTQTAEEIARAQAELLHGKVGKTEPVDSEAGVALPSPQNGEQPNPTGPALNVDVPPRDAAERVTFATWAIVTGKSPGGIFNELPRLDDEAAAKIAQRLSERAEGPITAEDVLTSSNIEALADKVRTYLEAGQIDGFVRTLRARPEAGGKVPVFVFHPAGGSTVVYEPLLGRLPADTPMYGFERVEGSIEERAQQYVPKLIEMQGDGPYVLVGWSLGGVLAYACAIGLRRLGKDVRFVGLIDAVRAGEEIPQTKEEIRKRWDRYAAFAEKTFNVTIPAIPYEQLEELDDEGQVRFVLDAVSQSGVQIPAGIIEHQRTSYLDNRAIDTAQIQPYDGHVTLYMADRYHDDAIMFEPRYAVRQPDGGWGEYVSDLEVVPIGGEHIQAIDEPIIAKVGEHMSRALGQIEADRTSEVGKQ

[7] = Metabolic stability in human liver microsomes assessed as half life at 0.1 uM measured upto 60 mins by LC/MS-MS analysis; assay type: ADME, Microsome
[8] = target: Polyketide synthase Pks13 (Mycobacterium tuberculosis (strain ATCC 25618 / H37Rv)) (UniProt I6X8D2); assay: Induction of stabilization of Mycobacterium tuberculosis H37Rv Pks-13 TE domain assessed as change in melting temperature incubated for 30 mins by NanoDSF assay
[9] = target: Polyketide synthase Pks13 (Mycobacterium tuberculosis (strain ATCC 25618 / H37Rv), UniProt I6X8D2); assay: Inhibition of Mycobacterium tuberculosis H37Rv Pks-13 TE domain using 4-MUH as fluorogenic substrate incubated for 90 mins by fluorescence based analysis
Chain of Polyketide synthase Pks13 (I6X8D2 whole entry, the tested form may be a part): as above

Structure (SMILES) | MIC [1] [µg/mL] | also measured
CN1CN(CC2CCCC2)Cc2c(O)ccc3oc(-c4ccc(O)cc4)c(c23)C1=O | 2 | –
CN1CN(CCCC2CCCCC2)Cc2c(O)ccc3oc(-c4ccc(O)cc4)c(c23)C1=O | > 64 | –
O=c1oc2cc(O)ccc2c2oc3ccc(O)c(CN4CCCCC4)c3c12 | – | pIC50 [2]: 6.28
CN1CN(CC2CC2)Cc2c(O)ccc3c2c(cn3-c2ccc(Br)cc2)C1=O | 8 | –
O=C(O)Cc1ccccc1Nc1c(Cl)cccc1Cl [DICLOFENAC] | – | microsomal CLint at 0.1 µM [3]: 248 µL/min/mg
CN1CN(CC2CCC2)Cc2c(O)ccc3oc(-c4ccccc4)c(c23)C1=O | 0.5 | –
CN1CN(C2CCCC2)Cc2c(O)ccc3c2c(cn3-c2ccc(Br)cc2)C1=O | 1 | –
CCOC(=O)c1c(NC(=O)c2c(F)c(F)c(F)c(F)c2F)sc2c1CCN(CC)C2 | – | MIC [4]: 0.23 µM
CC1c2c(O)ccc3c2c(cn3-c2ccc(Br)cc2)C(=O)CN1C1CCC1 (stereo unspecified) | 64 | –
CC(=O)c1c(C)n(-c2ccc(Br)cc2)c2ccc(O)c(CN3CCCCC3)c12 | 0.125 | –
CN1CN(C2CCCC2)Cc2c(O)ccc3oc(-c4ccc(O)cc4)c(c23)C1=O | 0.125 | remaining at 1 h, 0.1 µM [5]: 23.3%; Tm [6]: 66 °C; half-life at 0.1 µM [7]: 28.9 min; ΔTm [8]: 7 °C; microsomal CLint at 0.1 µM [3]: 48 µL/min/mg; pIC50 [2]: < 4.00; pIC50 [9]: 5.23
COc1cccc(-c2oc3ccc(O)c4c3c2C(=O)N(C)CN(CC2CCC2)C4)c1 | 4 | –
CNC(=O)c1c(-c2ccc(O)cc2)oc2ccc(O)c(CN3CCCCC3)c12 | – | Tm [6]: 67.4 °C; ΔTm [8]: 8.4 °C
CN1CN(C2CCCCC2)Cc2c(O)ccc3oc(-c4ccc(O)cc4)c(c23)C1=O | 8 | –
CC1c2c(O)ccc3c2c(cn3-c2ccccc2)CCN1C1CCC1 (stereo unspecified) | 16 | –
Oc1ccc2c3c(cn2-c2ccc(Br)cc2)CCN(CC2CCC2)Cc13 | 8 | remaining at 1 h, 0.1 µM [5]: 44.1%; half-life at 0.1 µM [7]: 51.5 min; microsomal CLint at 0.1 µM [3]: 26.9 µL/min/mg
CN1CN(CC2CCCC2)Cc2c(O)ccc3c2c(cn3-c2ccc(Br)cc2)C1=O | > 64 | –
CC1c2c(O)ccc3c2c(cn3-c2ccc(Br)cc2)C(=O)CN1CC1CC1 (stereo unspecified) | 32 | –
CN1CN(CC2CCC2)Cc2c(O)ccc3oc(-c4cccc(O)c4)c(c23)C1=O | 0.125 | –
CN1CN(CC2CCCCC2)Cc2c(O)ccc3oc(-c4ccc(O)cc4)c(c23)C1=O | 16 | –
COc1ccc(-c2oc3ccc(OC)c4c3c2C(=O)N(C)CN(CC2CCC2)C4)cc1 | 64 | –

Structure (SMILES) | MIC [1] [µg/mL] | also measured
CN1CN(CC2CCC2)Cc2c(O)ccc3oc(-c4ccc(F)cc4)c(c23)C1=O | 2 | –
CN1CN(C2CCC2)Cc2c(O)ccc3c2c(cn3-c2ccc(Br)cc2)C1=O | 8 | –
Oc1ccc2c3c(cn2-c2ccc(Br)cc2)CCN(CC2CC2)Cc13 | 16 | –
CC(C)CCN1Cc2c(O)ccc3oc(-c4ccc(O)cc4)c(c23)C(=O)N(C)C1 | 0.25 | –
CN1CN(CC2CC2)Cc2c(O)ccc3oc(-c4ccc(O)cc4)c(c23)C1=O | 0.031 | pIC50 [2]: < 4.00
COc1ccc2oc(-c3ccc(O)cc3)c3c2c1CN(CC1CCC1)CN(C)C3=O | 64 | –
CC1c2c(O)ccc3c2c(cn3-c2ccccc2)CCN1CC1CCC1 (stereo unspecified) | 8 | –
CC(C)CN1Cc2c(O)ccc3oc(-c4ccc(O)cc4)c(c23)C(=O)N(C)C1 | 0.062 | –
CN1CN(C2CCC2)Cc2c(O)ccc3oc(-c4ccc(O)cc4)c(c23)C1=O | 0.125 | –
CN1CN(CCC2CC2)Cc2c(O)ccc3oc(-c4ccc(O)cc4)c(c23)C1=O | 0.25 | –
CC1c2c(O)ccc3c2c(cn3-c2ccc(Br)cc2)C(=O)CN1CC1CCC1 (stereo unspecified) | > 64 | –
CN1CN(CC2CCC2)Cc2c(O)ccc3oc(-c4ccc(O)cc4)c(c23)C1=O | 0.016 | remaining at 1 h, 0.1 µM [5]: 8.2%; Tm [6]: 65.8 °C; half-life at 0.1 µM [7]: 17.7 min; ΔTm [8]: 6.8 °C; microsomal CLint at 0.1 µM [3]: 78.2 µL/min/mg; pIC50 [2]: < 4.00; pIC50 [9]: 5.68
CC1c2c(O)ccc3c2c(cn3-c2ccc(Br)cc2)CCN1CC1CCC1 (stereo unspecified) | 8 | –
CN1CN(CC2CCC2)Cc2c(O)ccc3c2c(cn3-c2ccc(Br)cc2)C1=O | 8 | –
CC1c2c(O)ccc3c2c(cn3-c2ccc(Br)cc2)CCN1C1CCC1 (stereo unspecified) | 8 | –
O=C1NCN(C2CCCC2)Cc2c(O)ccc3oc(-c4ccc(O)cc4)c1c23 | 0.5 | –
COc1ccc(-c2oc3ccc(O)c4c3c2C(=O)N(C)CN(CC2CCC2)C4)cc1 | 0.25 | –
CC1c2c(O)ccc3c2c(cn3-c2ccc(Br)cc2)CCN1CC1CC1 (stereo unspecified) | 8 | –
C[C@]12CC[C@H]3[C@@H](CCC4=CC(=O)CC[C@@]43C)[C@@H]1CC[C@@H]2O [TESTOSTERONE] | – | remaining at 1 h, 0.1 µM [5]: 4.1%
Oc1ccc2c3c(cn2-c2ccc(Br)cc2)CCN(C2CCC2)Cc13 | 16 | –
CC1c2c(O)ccc3c2c(cn3-c2ccccc2)CCN1CC1CC1 (stereo unspecified) | 16 | –
